Data taken from patent publication US20250177581A1, “NTSR1-TARGETED RADIOPHARMACEUTICALS AND DNA DAMAGE RESPONSE INHIBITOR COMBINATION THERAPY” (Fusion Pharmaceuticals Inc., priority 2022, published 2025).

System: CT-26-mNTSR1 tumor
Assay: Combination of [^225Ac]-Compound A and Olaparib in CT-26-mNTSR1 tumor bearing mice, tumor growth
Assay type: in vivo, mouse
Conditions: olaparib monotherapy at 50 mg/kg
Procedure: An in vivo study was conducted to test the effect of [^225Ac]-Compound A (as described in Example 3) in combination with Olaparib in CT-26-mNTSR1 tumor bearing mice.

With O=C(c1cc(Cc2n[nH]c(=O)c3ccccc23)ccc1F)N1CCN(C(=O)C2CC2)CC1 [olaparib] as the compound, how does the “reduction in tumor growth compared to control mice” value read?
The value was “slight or neglible reduction in tumor growth”.
